One test has as its system 5-HTP Diarrhea. Nature of the test: Anti-diarrhea activity against 5-HTP diarrhea in CD-1 mice (comparative tests). The format is in vivo, Male CD-1 mice. Particulars: for anti-diarrhea activity (in words): intravenously at a dose of 132 μ moles/kg. The method, then: (§1) The anti-diarrhea ED50 values were determined using a computer program "ED50" based on the probit method of D. J. Finney, "Probit Analysis", Cambridge University Press, Cambridge, Great Britain (1971). The average percent inhibition obtained at each dose level of [D-Thr^2, Δ^3 Pro^5 ]-enkephalinamide was used as the response.
Male CD-1 mice were obtained from Charles River, Inc., Wilmington, Massachusetts, and weighted between 18 and 25 grams at the time of use.
All compounds with the exception of 5-HTP were dissolved in sterile 0.9% sodium chloride solution. Distilled water was used as the vehicle for 5-HTP. All compounds were administered to the mice using a constant dosage volume of 0.2 ml/20 gms of body weight.
In the experiment involving naloxone HCl, it or the vehicle were given 5 minutes prior to the administration of β-endorphin.
The amount of diarrhea produced by 5-HTP was determined as follows. Immediately following the administration of 5-HTP, the mice were individually housed in open-bottomed wire cages of a width and length of 8.5 cm and a height of 7.5 cm, resting on preweighed plastic sheets. The mice were removed from the cages 30 minutes after receiving 5-HTP, and any visible urinary discharge present on the plastic sheet was blotted dry. The sheets were then reweighed. The weight increment was considered to represent fecal weight.

The subject of another test is Guinea Pig Ileum. Nature of the test: Opiate activity in guinea pig ileum assay. The format is cell-based. The method, then:
The opiate activity of [2-D-threonine, 5-(3,4-dehydroproline)]-enkephalinamide was measured according to the method of H. W. Kosterelitz, R. J. Lydon and H. A. Watt, British Journal of Pharmacology, volume 39 (1970), pp. 398-413. The results of the assay are shown in Table II and are compared with the opiate activities for human β-endorphin and Met-enkephaline.

Test [1] deals with 5-hydroxytryptophan-induced diarrhea. Nature of the test: Anti-diarrhea activity against 5-hydroxytryptophan-induced diarrhea in CF-1 mice. The format is in vivo, Male CF-1 mice. The settings on record: for Mean Fecal Wt. (mg) + S.E.: 30 s before 10 mg/kg 5-HTP ip, 30-minute test period. The method, then:
Male CF-1 mice were used. The mice were housed at least one week prior to use. At the time of use, the mice were 49 days of age and weighed between 21-25 grams. The mice received, intravenously, vehicle, or the indicated amounts of, [D-Thr^2, Δ^3 Pro^5 ]enkephalinamide dissolved in sterile 0.9% sodium chloride. Thirty seconds later, 10 mg/kg of DL-5-hydroxytryptophan was administered intraperitoneally using distilled water as the vehicle. The mice were then immediately placed in individual open-bottomed wire cages resting on preweighed parafilm sheets. The mice were removed from their cages 30 minutes after receiving the DL-5-hydroxytryptophan. Any fecal material adhering to the sides of the wire cage was collected and placed on the parafilm sheets, and any visible urine on the sheets was blotted dry. The sheets were weighed, and the weight increment was considered to represent the amount of feces discharged during the 30-minute test period.
as §1

The conditions of test [2]: cited from earlier work; for analgesic activity (in words): prior-art report.
Setting [3] is: iv, 30 seconds prior to 10 mg/kg 5-HTP ip.

Square brackets hold non-standard residues; d marks the D form. Peptide text beside a SMILES is read from it. ΔPro = O=C(O)[C@@H]1C=CCN1 Some results are limits rather than exact numbers.

Consider `CN1CC[C@]23c4c5ccc(O)c4O[C@H]2[C@@H](O)C=C[C@H]3[C@H]1C5.O=S(=O)(O)O` [Morphine Sulfate], for which the “prevention of 5-HTP diarrhea (in words)” value in the test with 5-HTP Diarrhea (intravenously or subcutaneously administered) was “effective in preventing this diarrhea”.

`C[C@H](O)[C@@H](NC(=O)[C@@H](N)Cc1ccc(O)cc1)C(=O)NCC(=O)N[C@@H](Cc1ccccc1)C(=O)N1CC=C[C@H]1C(N)=O` [[D-Thr^2, Δ^3 Pro^5]-enkephalinamide, [2-D-threonine, 5-(3,4-dehydroproline)]-enkephalinamide] (H-Y[dT]GF[ΔPro]-NH2): the IC50 with Guinea Pig Ileum came out at 9.3 nM. In addition, the “Relative Potency” value worked out at 330 in the test on Guinea Pig Ileum (human β-endorphin = 100, 5-(3,4-dehydroproline)]-enkephalinamide) and 336 in the test on Guinea Pig Ileum (human β-endorphin = 100, listed as Tyr-D-Thr-Gly-Phe-Δ Pro-NH2). Moreover, the “Mean Fecal Wt. (mg) + S.E.” value was found to be 117.3 ± 11.06 mg in test [1] (1.2 μm/kg iv), 80.1 ± 22.43 mg in test [1] (3.60 μm/kg iv), 49.8 ± 14.44 mg in test [1] (12.05 μm/kg iv) and 37.9 ± 12.81 mg in test [1] (24.10 μm/kg iv). The “% Inhibition” value in test [1] (1.2 μm/kg iv, 5-HTP 10 mg/kg ip) came to 34.6%; in test [1] (3.60 μm/kg iv, 5-HTP 10 mg/kg ip), 55.3%; in test [1] (12.05 μm/kg iv, 5-HTP 10 mg/kg ip), 72.2%; in test [1] (24.10 μm/kg iv, 5-HTP 10 mg/kg ip) it was 78.9%. Further, in test [1] (by intravenous injection), the “inhibition of 5-hydroxytryptophan-induced diarrhea (in words)” value is recorded as “potent agent”. In addition, the “ED50 μm/kg + S.E.” value in test [1] (iv, probit method, 5-HTP 10 mg/kg ip) is on record as 2.9 ± 1.74 μm/kg.

For Human β-Endorphin, in the test with Guinea Pig Ileum, 31 nM corresponded to half-maximal inhibition (IC50). The “Relative Potency” value with Guinea Pig Ileum (human β-endorphin = 100) turned out to be 100. Further, the “% Inhibition of 5-HTP Diarrhea ± S.E.” value in the test with 5-HTP Diarrhea (0.43 μmoles/kg iv) was 25.6 ± 16.1%; in the test with 5-HTP Diarrhea (0.86 μmoles/kg iv), 46.6 ± 16.0%; with 5-HTP Diarrhea (1.0 μmoles/kg sc), 35.3 ± 14.2%; in the test with 5-HTP Diarrhea (1.73 μmoles/kg iv), 58.3 ± 12.6%; in the test with 5-HTP Diarrhea (3.0 μmoles/kg sc) it was 51.7 ± 9.9%; with 5-HTP Diarrhea (3.46 μmoles/kg iv) it was 62.2 ± 10.3%. For the same compound, the “% Inhibition of 5-HTP Diarrhea ± S.E.” value is 61.0 ± 6.9% in the test with 5-HTP Diarrhea (6.0 μmoles/kg sc), 66.4 ± 8.0% with 5-HTP Diarrhea (6.92 μmoles/kg iv), 70.3 ± 8.7% with 5-HTP Diarrhea (9.0 μmoles/kg sc) and 92.2 ± 4.8% in the test with 5-HTP Diarrhea (13.84 μmoles/kg iv). The “Anti-Diarrhea ED50 ± S.E.” value with 5-HTP Diarrhea (setting [3]) worked out at 1.42 ± 0.636 µmol/kg; in the test with 5-HTP Diarrhea (sc, 1 minute prior to 10 mg/kg 5-HTP ip), 2.65 ± 1.425 µmol/kg.

As for Leu-Enkephalin, the “% Inhibition of 5-HTP Diarrhea ± S.E.” value is reported as 0.0 ± 13.1% with 5-HTP Diarrhea (66 μmoles/kg iv) and 10.4 ± 7.7% in the test with 5-HTP Diarrhea (132 μmoles/kg iv). The “anti-diarrhea activity (in words)” value with 5-HTP Diarrhea is listed as “only weak anti-diarrhea activity”. Besides, the “Anti-Diarrhea ED50 ± S.E.” value with 5-HTP Diarrhea (setting [3]) is greater than 132 µmol/kg.

The compound Met-Enkephalin returned an IC50 in the test on Guinea Pig Ileum of 124 nM. Also, the “Relative Potency” value in the test on Guinea Pig Ileum (human β-endorphin = 100) turned out to be 25. Further, the entries for the “% Inhibition of 5-HTP Diarrhea ± S.E.” value in the test with 5-HTP Diarrhea (66 μmoles/kg iv) and in the test with 5-HTP Diarrhea (132 μmoles/kg iv) were 21.3 ± 15.9% and 23.7 ± 9.6%, respectively. In addition, in the test with 5-HTP Diarrhea, the “anti-diarrhea activity (in words)” value was “only weak anti-diarrhea activity”. The “Anti-Diarrhea ED50 ± S.E.” value with 5-HTP Diarrhea (setting [3]) was greater than 132 µmol/kg.

As to “[D-Ala^2, MePhe^4, MetO^5 -ol] enkephalin”, in test [2] (Roemer et al., Nature 268, 547 (1977)), the “oral activity (in words)” value was “orally active”. For the same compound, the “analgesic activity (in words)” value in test [2] is “most potent analgesic of the group”.

Regarding “[D-Met^2, Pro^5 ]-enkephalinamide [D-Met^2 -Pro^5 -Enkephalin-Amide]”, in test [2], the “analgesic activity (in words)” value is “potent analgesic agent”. In addition, the “% Inhibition of 5-HTP Diarrhea ± S.E.” value stood at 1.7 ± 13.2% in the test with 5-HTP Diarrhea (0.20 μmoles/kg iv); 32.3 ± 13.4% in the test with 5-HTP Diarrhea (0.60 μmoles/kg iv); 36.9 ± 11.0% in the test with 5-HTP Diarrhea (1.20 μmoles/kg iv); 66.0 ± 7.6% in the test with 5-HTP Diarrhea (2.40 μmoles/kg iv); 88.6 ± 7.7% in the test on 5-HTP Diarrhea (4.30 μmoles/kg iv). The “Anti-Diarrhea ED50 ± S.E.” value in the test with 5-HTP Diarrhea (setting [3]) worked out at 1.38 ± 0.310 µmol/kg.

As to [D-Met^2, Thz^5 ]-enkephalinamide, the “analgesic activity (in words)” value in test [2] is reported as “potent analgesic agents”.

On to [D-Thr^2, Thz^5 ]-enkephalinamide, for which, in test [2], the “analgesic activity (in words)” value was “potent analgesic agents”.

For orientation: IC50 means the concentration needed to halve the response being measured. High values mean lower potency, low ones higher potency. Broadly, the % Inhibition is the relative decrease from the control value, in per cent. Low values mean a weak effect, high ones a strong effect.
